The nature of data set [1]: Accelerated stability test, sealed containers incubated at 50° C. Type of data set: physicochemical. To be noted: sealed container. How it is done:
For extrapolating potential storage stability beyond one year, an accelerated storage stability test was conducted. In this test, crystalline TGS of small and large mean particle size was incubated at 50° C. in sealed containers. Percent assay and pH were tested after each 24 hours for five successive days. […] A three days' stability in accelerated stability test is extrapolated by Catani et al (2005) to 8 years of storage stability at ambient temperature.
All the three samples were taken in sealed containers and were incubated at 50° C. […]

Data set [2] can be described thus: Particle size analysis. To be noted: for particle size distribution at 90%: 90% of particles below this size.
Protocol: The TGS crystals obtained were tested for purity and particle size.
The solids obtained were tested for purity, particle size and X ray diffraction for the nature of solid obtained.
Data set [3] can be described thus: Analysis against JECFA specifications: solubility. The format is physicochemical. To be noted: in ethyl acetate.
Data set [4] is described as follows: Stability testing as per ICH Guideline Q1A(R2), storage stability. To be noted: for Appearance: storage condition not given. Type of data set: physicochemical. An excerpt: Stability testing was done as per ICH Harmonised Tripaertite Guideline Stability Testing of New drug substances and Products Q1A(R2) issued by International Conference on Hamonization of technical requirements for registration of pharmaceuticals for human use and recommended for adoption at Step 4 of the ICH Process on 6 Feb.
Details are given on table nos 1 to 4 given in the following: […]

Where [5] appears, read: Fourth day, listed as Amorphous TGS.

SMILES strings stand for the structures.

Regarding `OC[C@H]1O[C@H](O[C@]2(CCl)O[C@H](CCl)[C@@H](O)[C@@H]2O)[C@H](O)[C@@H](O)[C@H]1Cl` [1′-6′-Dichloro-1′-6′-DIDEOXY-β-Fructofuranasyl-4-chloro-4-deoxy-galactopyranoside], the “Assay (%)” value is on record as 96.86% in data set [1] (Fifth day); 98.73% in data set [1] (First day); 97.06% in data set [1] (Fourth day); 98.21% in data set [1] (Second day); 96.72% in data set [1] (Sixth day); 97.53% in data set [1] (Third day). In addition, the PH was determined as 7.00 in data set [1] (Fifth day); 7.08 in data set [1] (First day); 7.00 in data set [1] (Fourth day); 7.08 in data set [1] (Second day); 7.02 in data set [1] (Sixth day); 7.02 in data set [1] (Third day). Further, the “decline in percent assay” value worked out at 1.87% in data set [1] (by fifth day); 2.01% in data set [1] (by sixth day); 1.2% in data set [1] (in first three days, listed as large particle size crystalline TGS). For the same compound, in data set [1] (over the test period), the “difference in pH” value is given as “not substantial”. Further, the “particle size distribution at 90%” value in data set [2] (listed as Example 5) is recorded as “below 240 microns”. Moreover, the mean particle size entry in data set [2] (listed as Crystalline TGS (big particle size)) is “about 35 micron”.

As to `OC[C@H]1O[C@H](O[C@]2(CCl)O[C@H](CCl)[C@@H](O)[C@@H]2O)[C@H](O)[C@@H](O)[C@H]1Cl` [Amorphous TGS small particle size, 1′-6′-Dichloro-1′-6′-DIDEOXY-β-Fructofuranasyl-4-chloro-4-deoxy-galactopyranoside], the PH stood at 7.06 in data set [1] (Fifth day); 7.03 in data set [1] (First day); 7.02 in data set [1] (setting [5]); 7.03 in data set [1] (Second day); 7.05 in data set [1] (Sixth day). For the same compound, the “Assay (%)” value in data set [1] (Fifth day, listed as Amorphous TGS) is on record as 98.19%; in data set [1] (First day, listed as Amorphous TGS) it was 98.21%; in data set [1] (setting [5]), 98.18%; in data set [1] (Second day, listed as Amorphous TGS), 98.20%; in data set [1] (Sixth day, listed as Amorphous TGS), 98.17%; in data set [1] (Third day, listed as Amorphous TGS), 98.24%. Also, the “decline in percent assay” value came out at 0.08% in data set [1] (in first three days, listed as Amorphous form) and 0.08% in data set [1] (in first three days, listed as amorphous form). The “decline in pH” value in data set [1] (over three days) is given as 0.08 units. Also, the Solubility result in data set [3] is listed as “water. Slightly”. For the same compound, the Assay in data set [4] (25° C. ± 2° C. 60% RH ± 5% RH, 1st month) is reported as 99.34%; in data set [4] (25° C. ± 2° C. 60% RH ± 5% RH, 2nd month) it was 99.36%; in data set [4] (25° C. ± 2° C. 60% RH ± 5% RH, 3rd month) it was 99.32%; in data set [4] (25° C. ± 2° C. 60% RH ± 5% RH, 4th month) it was 99.36%; in data set [4] (25° C. ± 2° C. 60% RH ± 5% RH, 5th month) it was 99.28%; in data set [4] (25° C. ± 2° C. 60% RH ± 5% RH, 6th month), 99.23%. The Assay came to 99.22% in data set [4] (25° C. ± 2° C. 60% RH ± 5% RH, 12th month); 99.14% in data set [4] (25° C. ± 2° C. 60% RH ± 5% RH, 24th month); 99.84% in data set [4] (30° C. ± 2° C. 65% RH ± 5% RH, 1st month); 99.84% in data set [4] (30° C. ± 2° C. 65% RH ± 5% RH, 2nd month); 99.62% in data set [4] (30° C. ± 2° C. 65% RH ± 5% RH, 3rd month); 99.65% in data set [4] (30° C. ± 2° C. 65% RH ± 5% RH, 4th month). In addition, the Assay in data set [4] (30° C. ± 2° C. 65% RH ± 5% RH, 5th month) came out at 99.58%; in data set [4] (30° C. ± 2° C. 65% RH ± 5% RH, 6th month) it was 99.53%; in data set [4] (30° C. ± 2° C. 65% RH ± 5% RH, 12th month), 99.62%; in data set [4] (30° C. ± 2° C. 65% RH ± 5% RH, 24th month), 99.32%; in data set [4] (40° C. ± 2° C. 75% RH ± 5% RH, 1st month) it was 99.68%; in data set [4] (40° C. ± 2° C. 75% RH ± 5% RH, 2nd month) it was 99.65%. For the same compound, the Assay was 99.67% in data set [4] (40° C. ± 2° C. 75% RH ± 5% RH, 3rd month); 99.58% in data set [4] (40° C. ± 2° C. 75% RH ± 5% RH, 4th month); 99.52% in data set [4] (40° C. ± 2° C. 75% RH ± 5% RH, 5th month); 99.46% in data set [4] (40° C. ± 2° C. 75% RH ± 5% RH, 6th month); 99.52% in data set [4] (40° C. ± 2° C. 75% RH ± 5% RH, 12th month); 99.12% in data set [4] (40° C. ± 2° C. 75% RH ± 5% RH, 24th month). In data set [4] (INITIAL (printed in the 40° C. ± 2° C. 75% RH ± 5% RH column)), the Assay came out at 99.70%. The stability in storage result in data set [4] (storage) was “stable for at least one year in storage”. Also, the Appearance entry in data set [4] (1st month), in data set [4] (2nd month), in data set [4] (3rd month), in data set [4] (4th month), in data set [4] (5th month) and in data set [4] (6th month) was “Normal” in each case. Further, the Appearance result in data set [4] (12th month), in data set [4] (24th month) and in data set [4] (INITIAL) was “Normal” in each case. Besides, the “stability compared to the crystalline form” value in data set [4] (table 4) is listed as “much more stable”. Further, the “particle size distribution at 90%” value in data set [2] (listed as Example 3) is “below 6 microns”; in data set [2] (listed as amorphous product), “less than 6 microns”. In data set [2] (listed as amorphous form), the largest particle size was at most 14 microns.

As to `OC[C@H]1O[C@H](O[C@]2(CCl)O[C@H](CCl)[C@@H](O)[C@@H]2O)[C@H](O)[C@@H](O)[C@H]1Cl` [Example 4, 1′-6′-Dichloro-1′-6′-DIDEOXY-β-Fructofuranasyl-4-chloro-4-deoxy-galactopyranoside], the “particle size distribution at 90%” value in data set [2] is listed as under 95 microns.

As for `OC[C@H]1O[C@H](O[C@]2(CCl)O[C@H](CCl)[C@@H](O)[C@@H]2O)[C@H](O)[C@@H](O)[C@H]1Cl` [Example 6, 1′-6′-Dichloro-1′-6′-DIDEOXY-β-Fructofuranasyl-4-chloro-4-deoxy-galactopyranoside], the “particle size distribution at 90%” value in data set [2] is on record as “below 12 microns”.

The record behind these values is patent US20090208747A1, “Novel Crystalline Methods and Novel Crystalline and Amorphous forms of Halogenated Sugars” (V.B. MEDICARE PVT. LTD, priority 2006, published 2009).
